Measurements as given in US4169096A, “Antibiotic compounds” (priority 1977, dated 1979).
Converted amounts (≈) assume the structure as drawn. Like-named read-outs stand apart in the source and are kept apart here.

How the values were obtained:
[1] = tested on: Escherichia coli Juhl A15119; assay: MIC, serial two-fold agar dilution, aerobic bacteria; assay type: cell-based; conditions: JUHLA15119
[2] = tested on: Klebsiella pneumoniae A9678; assay: as above; assay type: cell-based; conditions: Nutrient agar (Eiken), read-out: MIC
[3] = tested on: Serratia marcescens A20019; assay: as above; assay type: cell-based; conditions: Nutrient agar (Eiken), read-out: MIC
[4] = tested on: Pseudomonas aeruginosa A9843; assay: as above; assay type: cell-based; conditions: test medium not given
Proteus mirabilis A9554 = assay: as above; assay type: cell-based; conditions: Nutrient agar (Eiken)
Proteus morganii A9553 = assay: as above; assay type: cell-based; conditions: Morganella morganii, Nutrient agar (Eiken)
[5] = tested on: Staphylococcus aureus 209P; assay: as above; assay type: cell-based; conditions: Nutrient agar (Eiken)
[6] = tested on: Staphylococcus aereus Smith; assay: as above; assay type: cell-based
[7] = tested on: Staphylococcus aureus #52-34; assay: as above; assay type: cell-based
Sarcina lutea PCI-1001 = assay: as above; assay type: cell-based; conditions: Micrococcus luteus, PCI1001; Nutrient agar (Eiken); read-out: MIC
Micrococcus flavus = assay: as above; assay type: cell-based
[8] = tested on: Streptococcus pyogenes A9604; assay: as above; assay type: cell-based; conditions: GC medium (Eiken)
[9] = tested on: Streptococcus pyogenes A20201; assay: as above; assay type: cell-based; conditions: GC medium (Eiken)
[10] = tested on: Neisseria meningitidis A21496; assay: as above; assay type: cell-based; conditions: GC medium (Eiken)
[11] = tested on: Neisseria gonorrhoeae A20154; assay: as above; assay type: cell-based; conditions: GC medium (Eiken)
[12] = tested on: Hemophilus influenzae A9832; assay: as above; assay type: cell-based; conditions: Haemophilus influenzae, GC medium (Eiken)
B. fragilis A20928-1 [13] = assay: Inoculum size effect on MIC, GAM agar; assay type: cell-based; conditions: Bacteroides fragilis, A209281; inoculum size 1.2 × 10^6 cell/ml
C. perfringens A9635 [14] = assay: microbe, parasite or virus in culture; assay type: cell-based, Clostridium perfringens
B. fragilis A20928-1 [15] = assay: Inoculum size effect on MIC, GAM broth; assay type: cell-based; conditions: Bacteroides fragilis
B. fragilis A20928-1 [16] = assay: Bactericidal activity (MIC & MBC); assay type: cell-based; conditions: Bacteroides fragilis, A209281, inoculum size 2.8 × 10^6 cell/ml
C. perfringens A9635 [17] = assay: microbe, parasite or virus in culture; assay type: cell-based; conditions: Clostridium perfringens
S. pyogenes A20201 [18] = assay: Bactericidal activity (MIC & MBC); assay type: cell-based; conditions: Streptococcus pyogenes, A20201, 18 h
S. pyogenes A20201 [19] = assay: Systemic infection with S. pyogenes in mice; assay type: in vivo; conditions: just before challenge, determined after 5 days
Solubility = assay type: physicochemical
Stability in solution = assay type: physicochemical
aerobic organisms = assay: Antibacterial activity against aerobic bacteria (in words); assay type: cell-based; conditions: Bacillus species, streptococci, Neisseria meningtidis, N. gonorrhoeae, Hemophilus influenzae
[20] = tested on: aerobic and anaerobic bacteria; assay: Antibacterial activity and spectrum (in words); assay type: cell-based
[21] = tested on: two anaerobic organisms (B. fragilis and C. perfringens); assay type: cell-based; conditions: broth dilution method
[22] = tested on: two anaerobic and one aerobic organisms; assay: Bactericidal potential (in words); assay type: cell-based
[23] = tested on: C. perfringens or S. pyrogenes; assay type: in vivo, mice; conditions: oral
[24] = tested on: Bacteroides fragilis A20929; assay: microbe, parasite or virus in culture
[25] = tested on: Bacteroides fragilis A20930; assay: microbe, parasite or virus in culture
[26] = tested on: Bacteroides fragilis A20932; assay: microbe, parasite or virus in culture
[27] = tested on: Bacteroides fragilis A20935; assay: microbe, parasite or virus in culture
[28] = tested on: Sphaerophorus necrophorus A15202; assay: microbe, parasite or virus in culture; conditions: Fusobacterium necrophorum
[29] = tested on: Fusobacterium mortiferum ATCC 9817; assay: microbe, parasite or virus in culture; conditions: ATCC9817
[30] = tested on: Acidoaminococcus fermentans ATCC 25085; assay: microbe, parasite or virus in culture
[31] = tested on: Veillonella parvula ATCC 17745; assay: microbe, parasite or virus in culture; conditions: ATCC17745
[32] = tested on: Peptococcus aerogenes ATCC 14963; assay: microbe, parasite or virus in culture; conditions: Peptoniphilus asaccharolyticus, ATCC14963
[33] = tested on: Escherichia coli K-12 A9632; assay: MIC, serial two-fold agar dilution, aerobic bacteria; conditions: K12A9632

For `COC(=O)C1C(C)OC2(C)CC(=O)C3OC12OC(C(C)/C=C(C)/C=C/C(=O)C1=C(O)CN(C)C1=O)C3C` (stereo not shown) [Bu-2313A], the MIC [1] was over 100 µg/mL, the MIC [2] was over 100 µg/mL and the MIC [3] was over 100 µg/mL. It also gave an MIC [4] of over 100 µg/mL, an MIC (Proteus mirabilis A9554) of over 100 µg/mL and an MIC (Proteus morganii A9553) of over 100 µg/mL. For the same compound, the MIC [5] was 25 µg/mL (≈ 48.3 µM), the MIC [6] was 12.5 µg/mL (≈ 24.2 µM) and the MIC [7] was 12.5 µg/mL (≈ 24.2 µM). The MIC (Sarcina lutea PCI-1001) was 25 µg/mL (≈ 48.3 µM), the MIC (Micrococcus flavus) was 6.3 µg/mL (≈ 12.2 µM) and the MIC [8] was 0.8 µg/mL (≈ 1.55 µM). For the same compound, the MIC [9] was 0.8 µg/mL (≈ 1.55 µM), the MIC [10] was 3.1 µg/mL (≈ 5.99 µM) and the MIC [11] was 0.8 µg/mL (≈ 1.55 µM). For the same compound, the MIC [12] was 0.8 µg/mL (≈ 1.55 µM), the MIC (B. fragilis A20928-1 [13]) was 0.1 µg/mL (≈ 0.193 µM) and the MIC (C. perfringens A9635 [14]; Clostridium perfringens, A9635, read-out: MIC in GAM agar) was 0.1 µg/mL (≈ 0.193 µM). For the same compound, the “MIC in GAM agar” value (C. perfringens A9635 [14]; inoculum size 7 × 10^6 cell/ml) was 0.1 µg/mL (≈ 0.193 µM), the MIC (B. fragilis A20928-1 [15]; A209281, inoculum size […] 10^7 cell/ml, read-out: MIC in GAM broth) was 0.8 µg/mL (≈ 1.55 µM) and the MIC (B. fragilis A20928-1 [15]; A209281, read-out: MIC in GAM broth, inoculum size […] 10^6 cell/ml) was 0.06 µg/mL (≈ 0.116 µM). It also gave an MIC (B. fragilis A20928-1 [16]; broth) of 0.03 µg/mL (≈ 0.058 µM), an MBC (B. fragilis A20928-1 [16]; growth of less than 100 colonies per plate, 18 hours at 37° C.) of over 0.8 µg/mL and an MIC (C. perfringens A9635 [17]; A9635) of 0.1 µg/mL (≈ 0.193 µM). For the same compound, the MBC (C. perfringens A9635 [17]; A9635, 18 h) was 12.5 µg/mL (≈ 24.2 µM), the MBC (S. pyogenes A20201 [18]) was 12.5 µg/mL (≈ 24.2 µM) and the ED50 (S. pyogenes A20201 [19]; Streptococcus pyogenes, A20201, 120 h, sc, read-out: PD50) was 7.6 mg/kg. For the same compound, the PD50 (S. pyogenes A20201 [19]; po, NA: no activity) was “NA at 25”, the solubility (Solubility; hexane and alkaline water) was “slightly soluble” and the solubility (Solubility; most organic solvents such as lower alcohols, ethyl acetate, chloroform and benzene) was “readily soluble”. For the same compound, the solubility (Solubility; water) was “practically insoluble”, the stability (Stability in solution; acidic solution) was “stable” and the stability (Stability in solution; alkaline solution, N/10 NaOH, room temperature, overnight) was “inactivated”. For the same compound, the “susceptibility of aerobic strains” value (aerobic organisms) was “susceptible”, the antibacterial activity [20] was “exhibit antibacterial activity against a variety of anaerobic bacteria and some aerobic bacteria” and the “comparative activity and antibacterial spectrum” value ([20]; in vitro) was “very similar to those of tirandamycin”. The “influence of inoculum size on MIC” value [21] was “greatly affected by inoculum size”, the antibacterial action [22] was “bacteriostatic rather than bactericidal” and the “activity by the oral route” value [23] was “inactive by the oral route”. The LD50 (in vivo; ip, LD50, ip) was 14 mg/kg, the LD50 (in vivo; po, LD50, po) was 90 mg/kg and the LD50 (in vivo; sc, LD50, sc) was 90 mg/kg. It also gave an MIC [24] of 0.2 µg/mL (≈ 0.386 µM), an MIC [25] of 0.2 µg/mL (≈ 0.386 µM) and an MIC [26] of 0.2 µg/mL (≈ 0.386 µM). For the same compound, the MIC [27] was 0.2 µg/mL (≈ 0.386 µM), the MIC [28] was 0.2 µg/mL (≈ 0.386 µM) and the MIC [29] was 0.2 µg/mL (≈ 0.386 µM). For the same compound, the MIC [30] was 0.2 µg/mL (≈ 0.386 µM), the MIC [31] was 0.2 µg/mL (≈ 0.386 µM) and the MIC [32] was 0.2 µg/mL (≈ 0.386 µM). For the same compound, the MIC [33] was over 100 µg/mL.
